Measurements from the supplement of paper PMC10307832.

Key:
Assay in all cases: relative viability (nuclei count vs DMSO), 5 days (fraction); higher = more cells survive
[1] = tested on: HCC-366
How it was run: (§1)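 Relative viability is defined as nuclei in treated wells over nuclei in vehicle wells. Duplicate plates were run and medians reported. Lung cancer cell lines in 1536-well plates were dosed by pin tool one day after seeding, with one drug or with a fixed anchor-drug dose plus five library-drug doses (not always all listed) in √10 steps, and nuclei were counted after 5 days.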

[2] = tested on: HCC-44
How it was run: as §1

[3] = tested on: IA-LM
How it was run: as §1

[4] = tested on: LOU-NH91
How it was run: as §1

[5] = tested on: NCI-H1437
How it was run: as §1

[6] = tested on: NCI-H1648
How it was run: as §1

[7] = tested on: NCI-H2085
How it was run: as §1

[8] = tested on: NCI-H3122
How it was run: as §1

Row | Compound | relative viability ([1]; first compound 0.08 µM) | relative viability ([1]; first compound 0.253 µM) | relative viability ([1]; first compound 0.8 µM) | relative viability ([1]; first compound 2.53 µM) | relative viability ([1]; first compound 8 µM) | relative viability ([2]; first compound 0.08 µM) | relative viability ([2]; first compound 0.253 µM) | relative viability ([2]; first compound 0.8 µM) | relative viability ([2]; first compound 2.53 µM) | relative viability ([2]; first compound 8 µM) | relative viability ([3]; first compound 0.253 µM) | relative viability ([3]; first compound 0.8 µM) | relative viability ([3]; first compound 2.53 µM) | relative viability ([3]; first compound 8 µM) | relative viability ([4]; first compound 0.08 µM) | relative viability ([4]; first compound 0.253 µM) | relative viability ([4]; first compound 0.8 µM) | relative viability ([4]; first compound 2.53 µM) | relative viability ([4]; first compound 8 µM) | relative viability ([5]; first compound 0.08 µM) | relative viability ([5]; first compound 0.253 µM) | relative viability ([5]; first compound 0.8 µM) | relative viability ([5]; first compound 2.53 µM) | relative viability ([5]; first compound 8 µM) | relative viability ([6]; first compound 0.253 µM) | relative viability ([6]; first compound 0.8 µM) | relative viability ([6]; first compound 8 µM) | relative viability ([7]; first compound 0.08 µM) | relative viability ([7]; first compound 0.253 µM) | relative viability ([7]; first compound 0.8 µM) | relative viability ([7]; first compound 2.53 µM) | relative viability ([7]; first compound 8 µM) | relative viability ([8]; first compound 0.08 µM) | relative viability ([8]; first compound 0.253 µM) | relative viability ([8]; first compound 0.8 µM) | relative viability ([8]; first compound 2.53 µM) | relative viability ([8]; first compound 8 µM) | relative viability ([6]; first compound 0.08 µM) | relative viability ([6]; first compound 2.53 µM)
1 | O=c1cc(-c2cccc3c2Sc2ccccc2S3)oc(N2CCOCC2)c1 + O=C(CCCCCCC(=O)Nc1ccccc1)NO [Vorinostat] (partner 1 µM) | 0.347 | 0.387 | 0.297 | 0.426 | 0.42 | 1.13 | 1.05 | 1.17 | 1.05 | 1.08 | 1.31 | 0.966 | 0.863 | 1.08 | 0.91 | 0.943 | 0.854 | 0.745 | 0.898 | 0.857 | 0.9 | 0.847 | 0.761 | 0.857 | 0.468 | 0.65 | 0.457 | 0.739 | 0.825 | 0.687 | 0.759 | 0.612 | 0.99 | 1.2 | 1.09 | 0.93 | 1.05 |  | 
2 | COc1nc(C)cnc1NS(=O)(=O)c1cccnc1-c1ccc(-c2nnco2)cc1 [Zibotentan] + CC(=O)Nc1cccc(-n2c(=O)n(C3CC3)c(=O)c3c(Nc4ccc(I)cc4F)n(C)c(=O)c(C)c32)c1 [Trametinib] (partner 0.02 µM) | 0.378 | 0.318 | 0.361 | 0.383 |  | 1.11 | 1 | 0.953 | 1.07 |  |  |  |  |  | 0.777 | 0.814 | 0.817 | 0.816 |  | 0.533 | 0.541 | 0.455 | 0.496 |  | 0.529 | 0.442 |  | 0.533 | 0.448 | 0.541 | 0.489 |  | 0.234 | 0.211 | 0.218 | 0.219 |  | 0.49 | 0.604
3 | COc1nc(C)cnc1NS(=O)(=O)c1cccnc1-c1ccc(-c2nnco2)cc1 [Zibotentan] + CC(=O)c1c(C)c2cnc(Nc3ccc(N4CCNCC4)cn3)nc2n(C2CCCC2)c1=O [Palbociclib] (partner 0.5 µM) | 0.387 | 0.285 | 0.383 | 0.4 |  | 0.98 | 0.827 | 0.949 | 1 |  |  |  |  |  | 0.483 | 0.544 | 0.504 | 0.476 |  | 0.327 | 0.296 | 0.288 | 0.304 |  | 0.276 | 0.312 |  | 0.47 | 0.466 | 0.496 | 0.47 |  | 0.186 | 0.177 | 0.154 | 0.18 |  | 0.274 | 0.259
